Literature values in patent publication US20170202932A1, “METHODS FOR INHIBITING NEURON APOPTOSIS AND NECROSIS” (NEWSOUTH INNOVATIONS PTY LIMITED, priority 2012, published 2017).

Assays:
other TRPC channels = settings: cited from earlier work
TRPC3 = biological target: T1, TRPC3 (Homo sapiens, UniProt Q13507); settings: cited from earlier work
T1 sequence (Q13507 1-921): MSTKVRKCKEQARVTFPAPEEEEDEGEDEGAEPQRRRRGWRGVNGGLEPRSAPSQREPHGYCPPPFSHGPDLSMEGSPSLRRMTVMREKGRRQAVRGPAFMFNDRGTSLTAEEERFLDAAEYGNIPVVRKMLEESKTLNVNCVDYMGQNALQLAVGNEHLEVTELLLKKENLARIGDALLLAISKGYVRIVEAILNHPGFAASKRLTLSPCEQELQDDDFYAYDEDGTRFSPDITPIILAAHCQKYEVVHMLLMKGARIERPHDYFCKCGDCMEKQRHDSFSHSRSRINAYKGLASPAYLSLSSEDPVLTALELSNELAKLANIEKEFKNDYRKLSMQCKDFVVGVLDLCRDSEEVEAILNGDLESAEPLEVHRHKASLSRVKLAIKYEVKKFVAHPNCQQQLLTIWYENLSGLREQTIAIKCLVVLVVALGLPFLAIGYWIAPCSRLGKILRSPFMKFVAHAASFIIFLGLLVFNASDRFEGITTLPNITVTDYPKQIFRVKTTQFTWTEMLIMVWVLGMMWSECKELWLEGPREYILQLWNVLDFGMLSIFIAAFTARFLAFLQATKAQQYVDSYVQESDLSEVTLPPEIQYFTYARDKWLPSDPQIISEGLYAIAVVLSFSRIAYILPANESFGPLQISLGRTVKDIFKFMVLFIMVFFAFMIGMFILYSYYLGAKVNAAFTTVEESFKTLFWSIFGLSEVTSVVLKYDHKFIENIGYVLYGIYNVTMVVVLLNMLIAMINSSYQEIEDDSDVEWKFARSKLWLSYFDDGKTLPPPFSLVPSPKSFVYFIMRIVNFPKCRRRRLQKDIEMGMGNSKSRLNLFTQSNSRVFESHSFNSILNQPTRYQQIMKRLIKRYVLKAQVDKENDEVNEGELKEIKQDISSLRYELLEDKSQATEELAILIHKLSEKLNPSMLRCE

CCOC(=O)c1cnn(-c2ccc(NC(=O)C(Cl)=C(Cl)Cl)cc2)c1C(F)(F)F [Pyr3, ethyl-1-(4-(2,3,3-trichloroacrylamide)phenyl)-5-(trifluoromethyl)-1H-pyrazole-4-carboxylate]
effect on other TRPC channels (other TRPC channels): no effect
inhibition of TRPC3-mediated Ca2+ influx (TRPC3): selectively inhibit
